# Data from the kinase profiling compilation of Christmann-Franck et al. (2016).
# What was measured:
# Assay in all cases: KINOMEscan competition binding
# Conditions in all cases: compound 10.0 µM
# [1] = test system: KIT (human), P10721 [V559D]
# [2] = test system: ABL1 (human), P00519 [Y253F]
# FGFR1 (human) = FGFR1 (human) (UniProt P11362)
# NEK6 (human) = NEK6 (human) (UniProt Q9HC98)
# SIK2 (human) = SIK2 (human) (UniProt Q9H0K1)
# DYRK1A (human) = DYRK1A (human) (UniProt Q13627)
# [3] = test system: ABL1 (human), P00519 [F317L]
# DCLK3 (human) = DCLK3 (human) (UniProt Q9C098)
# MAP2K2 (human) = MAP2K2 (human) (UniProt P36507)
# PIK3C2B (human) = PIK3C2B (human) (UniProt O00750)
# RIPK4 (human) = RIPK4 (human) (UniProt P57078)
# Sequence of RIPK4 (human) (P57078 whole entry, looked up): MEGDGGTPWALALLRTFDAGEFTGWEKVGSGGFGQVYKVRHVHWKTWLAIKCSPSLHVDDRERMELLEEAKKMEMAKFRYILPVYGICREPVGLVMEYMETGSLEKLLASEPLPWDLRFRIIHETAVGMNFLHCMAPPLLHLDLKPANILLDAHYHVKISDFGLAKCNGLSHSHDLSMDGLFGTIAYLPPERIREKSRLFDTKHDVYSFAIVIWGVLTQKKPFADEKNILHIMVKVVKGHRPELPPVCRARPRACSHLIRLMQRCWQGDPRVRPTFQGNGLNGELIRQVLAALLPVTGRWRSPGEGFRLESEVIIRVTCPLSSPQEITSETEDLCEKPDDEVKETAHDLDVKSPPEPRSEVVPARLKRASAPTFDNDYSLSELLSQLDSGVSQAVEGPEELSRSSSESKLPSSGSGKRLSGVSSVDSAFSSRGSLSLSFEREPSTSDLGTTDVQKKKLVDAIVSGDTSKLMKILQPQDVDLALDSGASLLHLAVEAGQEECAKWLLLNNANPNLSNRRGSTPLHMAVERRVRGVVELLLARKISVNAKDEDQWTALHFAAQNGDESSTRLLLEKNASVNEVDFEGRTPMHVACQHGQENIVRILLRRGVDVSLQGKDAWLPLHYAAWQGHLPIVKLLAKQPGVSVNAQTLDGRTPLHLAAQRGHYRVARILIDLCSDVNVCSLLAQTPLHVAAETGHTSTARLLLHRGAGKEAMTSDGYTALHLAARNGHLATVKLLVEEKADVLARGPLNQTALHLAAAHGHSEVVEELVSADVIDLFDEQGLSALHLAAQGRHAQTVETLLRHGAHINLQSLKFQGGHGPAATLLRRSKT
# [4] = test system: ABL1 (human), P00519 [Q252H]
# MATK (human) = MATK (human) (UniProt P42679)
# PAK3 (human) = PAK3 (human) (UniProt O75914)
# AAK1 (human) = AAK1 (human) (UniProt Q2M2I8)
# PLK3 (human) = PLK3 (human) (UniProt Q9H4B4)
# Sequence of PLK3 (human) (Q9H4B4 whole entry, looked up): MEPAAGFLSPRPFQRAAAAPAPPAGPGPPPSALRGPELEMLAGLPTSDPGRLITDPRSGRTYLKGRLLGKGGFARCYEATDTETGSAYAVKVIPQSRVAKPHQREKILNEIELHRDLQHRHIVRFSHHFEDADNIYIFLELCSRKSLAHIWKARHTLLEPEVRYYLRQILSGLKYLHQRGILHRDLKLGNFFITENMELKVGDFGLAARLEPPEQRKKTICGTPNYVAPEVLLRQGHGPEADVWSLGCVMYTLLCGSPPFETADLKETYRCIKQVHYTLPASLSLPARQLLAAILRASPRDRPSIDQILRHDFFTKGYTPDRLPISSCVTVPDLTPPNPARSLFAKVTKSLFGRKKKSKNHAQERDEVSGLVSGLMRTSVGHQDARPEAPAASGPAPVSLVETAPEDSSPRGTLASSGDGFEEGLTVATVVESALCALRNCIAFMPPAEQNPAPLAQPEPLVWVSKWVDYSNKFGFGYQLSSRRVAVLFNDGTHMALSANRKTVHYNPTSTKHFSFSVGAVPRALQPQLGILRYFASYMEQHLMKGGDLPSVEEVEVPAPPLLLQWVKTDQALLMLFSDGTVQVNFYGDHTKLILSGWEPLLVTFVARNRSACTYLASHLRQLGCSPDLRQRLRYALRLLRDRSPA
# STK16 (human) = STK16 (human) (UniProt O75716)
# CDK16 (human) = CDK16 (human) (UniProt Q00536)
# MAPK1 (human) = MAPK1 (human) (UniProt P28482)
# MAPK8 (human) = MAPK8 (human) (UniProt P45983)
# EPHA4 (human) = EPHA4 (human) (UniProt P54764)
# EPHB2 (human) = EPHB2 (human) (UniProt P29323)
# ERBB4 (human) = ERBB4 (human) (UniProt Q15303)
# Sequence of ERBB4 (human) (Q15303 whole entry, looked up): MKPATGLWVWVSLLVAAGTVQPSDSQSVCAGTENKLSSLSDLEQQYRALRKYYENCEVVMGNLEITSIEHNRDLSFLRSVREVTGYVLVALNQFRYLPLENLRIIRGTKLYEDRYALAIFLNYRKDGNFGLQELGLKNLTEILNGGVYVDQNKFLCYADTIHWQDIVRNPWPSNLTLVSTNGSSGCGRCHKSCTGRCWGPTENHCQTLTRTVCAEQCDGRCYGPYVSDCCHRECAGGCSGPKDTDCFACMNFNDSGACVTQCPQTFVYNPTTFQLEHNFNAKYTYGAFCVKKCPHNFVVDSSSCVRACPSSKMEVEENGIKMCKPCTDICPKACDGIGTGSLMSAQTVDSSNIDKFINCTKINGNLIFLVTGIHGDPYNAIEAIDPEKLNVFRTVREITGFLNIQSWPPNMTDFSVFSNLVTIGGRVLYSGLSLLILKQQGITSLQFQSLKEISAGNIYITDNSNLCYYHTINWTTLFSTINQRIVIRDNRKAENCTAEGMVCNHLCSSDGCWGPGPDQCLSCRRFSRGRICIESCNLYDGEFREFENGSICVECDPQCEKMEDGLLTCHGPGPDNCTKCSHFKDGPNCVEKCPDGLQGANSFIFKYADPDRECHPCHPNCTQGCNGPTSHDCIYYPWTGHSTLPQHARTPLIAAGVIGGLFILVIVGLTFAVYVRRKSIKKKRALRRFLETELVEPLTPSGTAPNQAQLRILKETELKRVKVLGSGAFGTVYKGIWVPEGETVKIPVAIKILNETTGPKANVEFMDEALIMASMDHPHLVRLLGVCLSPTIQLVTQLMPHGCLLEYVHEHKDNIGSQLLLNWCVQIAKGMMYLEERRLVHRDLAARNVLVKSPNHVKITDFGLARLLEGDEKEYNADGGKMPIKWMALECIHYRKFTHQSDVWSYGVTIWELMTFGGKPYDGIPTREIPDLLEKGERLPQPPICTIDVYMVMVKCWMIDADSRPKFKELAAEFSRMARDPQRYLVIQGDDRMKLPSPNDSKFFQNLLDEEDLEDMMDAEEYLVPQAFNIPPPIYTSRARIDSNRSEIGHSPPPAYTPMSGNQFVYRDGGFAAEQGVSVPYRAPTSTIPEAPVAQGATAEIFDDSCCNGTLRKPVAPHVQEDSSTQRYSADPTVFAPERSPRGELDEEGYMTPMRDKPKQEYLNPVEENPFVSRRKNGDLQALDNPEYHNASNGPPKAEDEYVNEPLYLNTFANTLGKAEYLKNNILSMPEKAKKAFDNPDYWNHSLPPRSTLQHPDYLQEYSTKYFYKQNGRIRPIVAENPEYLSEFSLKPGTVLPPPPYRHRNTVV
# CDKL5 (human) = CDKL5 (human) (UniProt O76039)
# [5] = test system: MET (human), P08581 [Y1235D]
# MST4 (human) = MST4 (human) (UniProt Q9P289)
# Sequence of MST4 (human) (Q9P289 whole entry, looked up): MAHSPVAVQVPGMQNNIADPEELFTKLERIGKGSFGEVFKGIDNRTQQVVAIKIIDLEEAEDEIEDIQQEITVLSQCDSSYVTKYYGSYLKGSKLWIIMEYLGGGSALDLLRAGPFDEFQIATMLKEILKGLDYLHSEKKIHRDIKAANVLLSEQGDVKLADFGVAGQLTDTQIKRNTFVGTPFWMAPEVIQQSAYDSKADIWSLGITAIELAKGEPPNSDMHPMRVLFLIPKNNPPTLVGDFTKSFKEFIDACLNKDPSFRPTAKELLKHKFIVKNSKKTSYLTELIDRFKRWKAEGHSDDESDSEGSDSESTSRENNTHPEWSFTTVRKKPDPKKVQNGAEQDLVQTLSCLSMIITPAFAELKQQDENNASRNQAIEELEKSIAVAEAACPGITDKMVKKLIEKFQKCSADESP
# CSNK1G3 (human) = CSNK1G3 (human) (UniProt Q9Y6M4)
# PRKACB (human) = PRKACB (human) (UniProt P22694)
# MAPK10 (human) = MAPK10 (human) (UniProt P53779)
# [6] = test system: FGFR3 (human), P22607 [G697C]
# STK3 (human) = STK3 (human) (UniProt Q13188)
# DAPK3 (human) = DAPK3 (human) (UniProt O43293)
# MAP4K2 (human) = MAP4K2 (human) (UniProt Q12851)
# IKBKE (human) = IKBKE (human) (UniProt Q14164)
# STK11 (human) = STK11 (human) (UniProt Q15831)
# ULK2 (human) = ULK2 (human) (UniProt Q8IYT8)
# Sequence of ULK2 (human) (Q8IYT8 whole entry, looked up): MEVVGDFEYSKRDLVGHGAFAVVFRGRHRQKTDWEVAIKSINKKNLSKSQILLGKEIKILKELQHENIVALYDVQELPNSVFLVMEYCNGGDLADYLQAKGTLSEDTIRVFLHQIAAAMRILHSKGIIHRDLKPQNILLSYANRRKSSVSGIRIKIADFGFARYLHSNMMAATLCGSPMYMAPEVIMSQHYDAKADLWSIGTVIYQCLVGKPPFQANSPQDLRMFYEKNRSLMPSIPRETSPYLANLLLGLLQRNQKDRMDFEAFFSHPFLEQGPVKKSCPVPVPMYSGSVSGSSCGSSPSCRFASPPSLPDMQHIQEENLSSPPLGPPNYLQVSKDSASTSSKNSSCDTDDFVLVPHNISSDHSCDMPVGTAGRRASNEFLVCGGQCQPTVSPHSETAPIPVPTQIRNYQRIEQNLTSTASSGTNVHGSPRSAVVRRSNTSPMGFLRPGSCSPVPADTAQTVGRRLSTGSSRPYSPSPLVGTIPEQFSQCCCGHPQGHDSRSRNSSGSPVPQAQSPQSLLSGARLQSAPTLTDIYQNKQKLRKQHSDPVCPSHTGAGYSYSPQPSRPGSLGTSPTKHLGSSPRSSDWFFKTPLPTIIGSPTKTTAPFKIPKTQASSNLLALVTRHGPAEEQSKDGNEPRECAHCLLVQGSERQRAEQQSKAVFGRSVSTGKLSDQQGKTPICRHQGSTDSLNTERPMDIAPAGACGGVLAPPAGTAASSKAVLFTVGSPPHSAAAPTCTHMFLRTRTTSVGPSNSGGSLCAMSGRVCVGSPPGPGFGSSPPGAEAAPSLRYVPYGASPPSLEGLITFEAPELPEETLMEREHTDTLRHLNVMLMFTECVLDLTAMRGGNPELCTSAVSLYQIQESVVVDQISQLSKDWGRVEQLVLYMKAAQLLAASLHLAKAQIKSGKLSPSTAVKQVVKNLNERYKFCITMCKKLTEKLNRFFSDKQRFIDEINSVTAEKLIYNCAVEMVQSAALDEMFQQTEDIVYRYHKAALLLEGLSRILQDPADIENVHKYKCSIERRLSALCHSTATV
# MYLK (human) = MYLK (human) (UniProt Q15746)
# CSNK1E (human) = CSNK1E (human) (UniProt P49674)
# EPHB3 (human) = EPHB3 (human) (UniProt P54753)
# PDPK1 (human) = PDPK1 (human) (UniProt O15530)
# CAMKK1 (human) = CAMKK1 (human) (UniProt Q8N5S9)
# DCLK2 (human) = DCLK2 (human) (UniProt Q8N568)
# Sequence of FGFR1 (human) (P11362 whole entry, looked up): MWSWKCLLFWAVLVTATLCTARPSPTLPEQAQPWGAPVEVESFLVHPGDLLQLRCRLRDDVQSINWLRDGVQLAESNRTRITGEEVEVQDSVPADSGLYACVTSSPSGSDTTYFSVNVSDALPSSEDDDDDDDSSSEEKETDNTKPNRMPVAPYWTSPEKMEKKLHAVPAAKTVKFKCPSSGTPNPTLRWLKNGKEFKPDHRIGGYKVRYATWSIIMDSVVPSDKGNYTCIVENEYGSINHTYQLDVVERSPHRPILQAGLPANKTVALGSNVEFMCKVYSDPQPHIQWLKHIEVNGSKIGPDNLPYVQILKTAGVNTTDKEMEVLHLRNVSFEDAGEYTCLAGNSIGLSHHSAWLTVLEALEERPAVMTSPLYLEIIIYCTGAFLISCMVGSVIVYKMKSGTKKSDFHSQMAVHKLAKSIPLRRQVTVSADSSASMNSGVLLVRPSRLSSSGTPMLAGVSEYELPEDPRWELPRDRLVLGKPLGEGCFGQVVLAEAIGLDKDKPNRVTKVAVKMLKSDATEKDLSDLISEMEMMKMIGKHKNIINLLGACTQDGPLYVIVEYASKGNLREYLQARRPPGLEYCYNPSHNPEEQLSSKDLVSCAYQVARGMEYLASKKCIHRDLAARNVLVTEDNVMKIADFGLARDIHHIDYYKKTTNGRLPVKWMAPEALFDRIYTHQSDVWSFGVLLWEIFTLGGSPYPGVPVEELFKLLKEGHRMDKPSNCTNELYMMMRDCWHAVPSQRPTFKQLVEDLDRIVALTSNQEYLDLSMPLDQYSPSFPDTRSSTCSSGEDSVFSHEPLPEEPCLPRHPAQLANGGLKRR
structure (smiles),measurement,setting,value
O=C1Nc2cc(Br)ccc2/C1=C1/Nc2ccccc2/C1=N\O,"kinase still bound, per cent of control",[1],0%
same,"kinase still bound, per cent of control",[2],4.2%
same,"kinase still bound, per cent of control",FGFR1 (human),18%
same,"kinase still bound, per cent of control",NEK6 (human),85%
same,"kinase still bound, per cent of control",SIK2 (human),8.2%
same,"kinase still bound, per cent of control",DYRK1A (human),59%
same,"kinase still bound, per cent of control",[3],5.2%
same,"kinase still bound, per cent of control",DCLK3 (human),8%
same,"kinase still bound, per cent of control",MAP2K2 (human),26%
same,"kinase still bound, per cent of control",PIK3C2B (human),100%
same,"kinase still bound, per cent of control",RIPK4 (human),40%
same,"kinase still bound, per cent of control",[4],3.8%
same,"kinase still bound, per cent of control",MATK (human),30%
same,"kinase still bound, per cent of control",PAK3 (human),7.7%
same,"kinase still bound, per cent of control",AAK1 (human),0.75%
same,"kinase still bound, per cent of control",PLK3 (human),100%
same,"kinase still bound, per cent of control",STK16 (human),0.8%
same,"kinase still bound, per cent of control",CDK16 (human),0%
same,"kinase still bound, per cent of control",MAPK1 (human),100%
same,"kinase still bound, per cent of control",MAPK8 (human),23%
same,"kinase still bound, per cent of control",EPHA4 (human),55%
same,"kinase still bound, per cent of control",EPHB2 (human),77%
same,"kinase still bound, per cent of control",ERBB4 (human),46%
same,"kinase still bound, per cent of control",CDKL5 (human),7.4%
same,"kinase still bound, per cent of control",[5],100%
same,"kinase still bound, per cent of control",MST4 (human),35%
same,"kinase still bound, per cent of control",CSNK1G3 (human),81%
same,"kinase still bound, per cent of control",PRKACB (human),100%
same,"kinase still bound, per cent of control",MAPK10 (human),12%
same,"kinase still bound, per cent of control",[6],14%
same,"kinase still bound, per cent of control",STK3 (human),0%
same,"kinase still bound, per cent of control",DAPK3 (human),2.7%
same,"kinase still bound, per cent of control",MAP4K2 (human),8.5%
same,"kinase still bound, per cent of control",IKBKE (human),29%
same,"kinase still bound, per cent of control",STK11 (human),2.7%
same,"kinase still bound, per cent of control",ULK2 (human),35%
same,"kinase still bound, per cent of control",MYLK (human),6.5%
same,"kinase still bound, per cent of control",CSNK1E (human),18%
same,"kinase still bound, per cent of control",EPHB3 (human),100%
same,"kinase still bound, per cent of control",PDPK1 (human),20%
same,"kinase still bound, per cent of control",CAMKK1 (human),4.8%
same,"kinase still bound, per cent of control",DCLK2 (human),100%
